Assay [1] deals with MM.1S multiple myeloma cell line. Description: Uptake of fluorescent analogs in MM.1S cells (optical imaging). The format is cell-based. The note with it: for uptake: MM.1S cells, fluorescence imaging. The source says:
(§1) FIG. 4 includes optical images showing uptake of CLR1501 in three different multiple myeloma cell lines (top row, MM.1S; middle row, MM.1R; bottom row, RPM18226). […] 20× magnification.
(§2) FIG. 6 includes optical images showing uptake of CLR1502 in three different multiple myeloma cell lines (top row, MM1S; middle row, MM.1R; bottom row, RPM18226). […] 20× magnification.

Assay [2] concerns MM.1R multiple myeloma cell line. The assay can be described thus: Uptake of fluorescent analogs in MM.1R cells (optical imaging). The format is cell-based. The note with it: fluorescence imaging.
Description: as §1, §2

Assay [3] concerns RPM18226 multiple myeloma cell line. The assay can be described thus: Uptake of fluorescent analogs in RPM18226 cells (optical imaging). The note with it: fluorescence imaging. The class given is cell-based.
Description: as §1, §2

The test system of assay [4] is U266 multiple myeloma cell line. Description: Uptake of fluorescent analogs in U266 cells (optical imaging). The format is cell-based. Particulars: fluorescence imaging. The source says: (§3) FIG. 5 includes optical images showing uptake of CLR1501 in two additional multiple myeloma cell lines (top row, U266; bottom row, H929). […] 20× magnification.
(§4) FIG. 7 includes optical images showing uptake of CLR1502 in two additional multiple myeloma cell lines (top row, U266; bottom row, H929). […] 20× magnification.

In assay [5] the test system is NCIH929 multiple myeloma cell line. Description: Uptake of fluorescent analogs in NCIH929 cells (optical imaging). Particulars: fluorescence imaging. The class given is cell-based.
Description: as §3, §4

The test system of assay [6] is peripheral blood mononuclear cells (PBMCs) isolated from normal human blood. The assay can be described thus: Uptake in normal peripheral blood mononuclear cells. The class given is cell-based. The note with it: compared to MM1.S cells. How it is done:
FIG. 8 includes optical images showing uptake of CLR1502 in cells co-incubated with Hoechst 33452 (blue nuclear) stain. […] 20× magnification.
(§5) Uptake of CLR1501 and 1502 was assessed using peripheral blood mononuclear cells (PBMCs) isolated from normal human blood.

Assay [7] deals with CD14+ monocyte/macrophage cells from normal human blood. The assay can be described thus: Uptake in CD14+ monocyte/macrophage cells among normal PBMCs. The format is cell-based. The method, then: as §5
Assay [8] relates to CD138+ multiple myeloma tumor cells. Description: Uptake in CD138+ tumor cells isolated from patient bone marrow aspirate. The class given is cell-based, human. The source says:
(§6) Bone marrow aspirate samples were taken from fifteen different patients diagnosed with multiple myeloma.
(§7) Uptake of both CLR1501 and CLR1502 was quantified by measuring fluorescence intensity for CD138^+ multiple myeloma tumor cells, CD14^+ monocyte/macrophage cells, and CD138^−/CD14^− cells isolated from bone marrow aspitrates from multiple myeloma patients.

Assay [9] has as its system CD14+ monocyte/macrophage cells. The assay can be described thus: Uptake in CD14+ monocyte/macrophage cells isolated from patient bone marrow aspirate. The format is cell-based, human.
Description: as §6, §7

Assay [10] concerns CD138-/CD14- cells (other mononuclear cells). The assay can be described thus: Uptake in CD138-/CD14- cells isolated from patient bone marrow aspirate. The class given is cell-based, human.
Description: as §6, §7

For assay [11], the system named is MM.1s multiple myeloma cells. Description: Bioactivity of [131I]-CLR1404: live fraction of MM.1s cells after exposure. The format is cell-based. The note with it: 48 hour exposure, control 96%. How it is done: MM.1s multiple myeloma cells were exposed to two different concentrations of [^131I]-CLR1404 (0.082 μCi and 0.91 μCi) for a 48 hour period, as well as to a control containing no [^131I]-CLR1404. Bioactivity for each group was determined by determining the percentage of cells that remained alive after the exposure period (live fraction).

[12] abbreviates: CD138+ cells from bone marrow aspirates of fifteen multiple myeloma patients.
[13] abbreviates: CD14+ cells from patient bone marrow aspirates.
[14] abbreviates: CD138- cells from the same patient samples (except CD14+ cells).

Each structure is given as a SMILES string.

With `C[N+](C)(C)CCOP(=O)([O-])OCCCCCCCCCCCCCCCCCCc1ccc(C2=C3C=CC=[N+]3[B-](F)(F)n3cccc32)cc1` [CLR1501], the uptake entry is listed as “strong uptake” in assay [1]; “strong uptake” in assay [2]; “strong uptake” in assay [3]; “high uptake” in assay [4]; “high uptake” in assay [5]; “minimal to no uptake” in assay [6]. Besides, the uptake result in assay [7] is on record as “did exhibit uptake”; in assay [8] (setting [12]) it was “high uptake”; in assay [8] (patient A, CD138+ cells) it was “taken up”; in assay [9] (setting [13]), “did take up the analogs”; in assay [9] (patient A, CD14+ cells), “taken up”; in assay [10] (setting [14]) it was “very minimal to no uptake”. The uptake result in [10] (patient A, CD138-/CD14- cells) is “no detectable uptake”; in assay [10] (patient B, CD138-/CD14- cells co-incubated with Hoechst 33452), “minimal CLR1501 uptake”. Further, in assay [1] (MM.1S, MM.1R, RPM18226 cells co-incubated with lipid raft stain), the “localization of uptake within cells” value is “localized to the lipid rafts”.

Turning to `CN1C(=CC=C2CCCC(C=CC3=[N+](C)c4ccccc4C3(C)C)=C2c2ccc(CCCCCCCCCCCCCCCCCCOP(=O)(O)OCC[N+](C)(C)C)cc2)C(C)(C)c2ccccc21` [CLR1502], the uptake entry in [1] was “high uptake”; in assay [2], “high uptake”; in assay [3], “high uptake”; in assay [4] it was “high uptake”; in [5] it was “high uptake”; in assay [6], “minimal to no uptake”. Further, the uptake entry in [7] is “did exhibit uptake”; in assay [8] (setting [12]), “high uptake”; in [9] (setting [13]), “did take up the analogs”; in assay [10] (setting [14]) it was “very minimal to no uptake”; in assay [10] (patient D, CD138-/CD14- cells), “minimal uptake”. Moreover, the “uptake in CD138+ tumor cells relative to CD14 monocyte/macrophage cells (fluorescence intensity)” value in assay [8] (patient G, same patient) is “threefold greater”. In addition, in assay [8] (patient G, same patient), the “uptake in CD138+ tumor cells relative to CD138-/CD14- cells (fluorescence intensity)” value was “about fifteen fold greater”.

For `C[N+](C)(C)CCOP(=O)([O-])OCCCCCCCCCCCCCCCCCCc1ccc([131I])cc1` [[^131I]-CLR1404], the values for the live fraction in [11] (0.082 μCi) and in assay [11] (0.91 μCi) were 71% and 0%, respectively.

For the origin of these results see patent US20160296646A1, “ALKYLPHOSPHOCHOLINE ANALOGS FOR MULTIPLE MYELOMA IMAGING AND THERAPY” (Wisconsin Alumni Research Foundation, priority 2015, published 2016).
